The values that follow are results of earlier work, collected in PMC8371712 (ACS chemical biology, 2021).

Data set [1] concerns aspartate aminotransferase. Conditions: margin of safety statement; no reference given.
Data set [2] has as its system Cerep SpectrumScreen panel of 176 pharmacological targets.
The conditions of data set [3]: no reference given.
The subject of data set [4] is alanine aminotransferase. Conditions: margin of safety statement; no reference given.
Data set [5] relates to various microsomal cytochrome P450 enzymes. Conditions: margin of safety statement; no reference given.
The test system of data set [6] is release of dopamine in the corpus striatum. Conditions: no reference given.
The subject of data set [7] is hERG potassium ion channel. The note with it: margin of safety statement; no reference given.

As for `N[C@H]1C=C(C(=O)O)CC1=C(F)F` [OV329, (S)-3-amino-(difluoromethylenyl)cyclopent-1-ene-1-carboxylic acid], the “activity against aspartate aminotransferase” value in data set [1] is given as “lack of activity”. Moreover, in data set [2], the “activity in Cerep SpectrumScreen panel” value was “lack of activity”. For the same compound, in data set [3], the Ames test result was “negative”. For the same compound, the “activity against alanine aminotransferase” value in data set [4] is “lack of activity”. Besides, in data set [5], the “activity against microsomal cytochrome P450 enzymes” value is given as “lack of activity”. Moreover, the “release of dopamine in the corpus striatum” value in data set [6] is given as “blocks the release of dopamine”. In data set [7], the “activity against hERG potassium ion channel” value is recorded as “lack of activity”.
